ChEMBL document CHEMBL3085703, “Synthetic cannabinoid quinones: preparation, in vitro antiproliferative effects and in vivo prostate antitumor activity” (Eur J Med Chem, 2013)
Activity calls are given as the source filed them. The rule behind the calls is not given here.

Key:
[1] = biological target: Cannabinoid receptor 2 (Homo sapiens, UniProt P34972); test: Displacement of [3H]CP55940 from human cannabinoid CB2 receptor expressed in HEK293 EBNA cells after 90 mins by liquid scintillation counting; type: cell-based
Sequence of Cannabinoid receptor 2 (P34972 whole entry): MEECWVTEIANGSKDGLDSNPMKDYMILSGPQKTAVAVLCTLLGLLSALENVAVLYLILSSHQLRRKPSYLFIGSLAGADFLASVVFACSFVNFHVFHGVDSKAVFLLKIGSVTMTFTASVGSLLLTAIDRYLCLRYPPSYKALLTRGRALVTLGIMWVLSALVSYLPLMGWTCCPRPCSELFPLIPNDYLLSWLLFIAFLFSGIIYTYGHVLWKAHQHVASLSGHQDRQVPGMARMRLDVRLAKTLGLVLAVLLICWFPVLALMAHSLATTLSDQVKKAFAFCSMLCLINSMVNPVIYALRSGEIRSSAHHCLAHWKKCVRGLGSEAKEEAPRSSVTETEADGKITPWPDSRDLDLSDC

[2] = biological target: Cannabinoid receptor 1 (Homo sapiens, UniProt P21554); test: Displacement of [3H]CP55940 from human cannabinoid CB1 receptor expressed in HEK293 EBNA cells after 90 mins by liquid scintillation counting; type: cell-based
Sequence of Cannabinoid receptor 1 (P21554 whole entry): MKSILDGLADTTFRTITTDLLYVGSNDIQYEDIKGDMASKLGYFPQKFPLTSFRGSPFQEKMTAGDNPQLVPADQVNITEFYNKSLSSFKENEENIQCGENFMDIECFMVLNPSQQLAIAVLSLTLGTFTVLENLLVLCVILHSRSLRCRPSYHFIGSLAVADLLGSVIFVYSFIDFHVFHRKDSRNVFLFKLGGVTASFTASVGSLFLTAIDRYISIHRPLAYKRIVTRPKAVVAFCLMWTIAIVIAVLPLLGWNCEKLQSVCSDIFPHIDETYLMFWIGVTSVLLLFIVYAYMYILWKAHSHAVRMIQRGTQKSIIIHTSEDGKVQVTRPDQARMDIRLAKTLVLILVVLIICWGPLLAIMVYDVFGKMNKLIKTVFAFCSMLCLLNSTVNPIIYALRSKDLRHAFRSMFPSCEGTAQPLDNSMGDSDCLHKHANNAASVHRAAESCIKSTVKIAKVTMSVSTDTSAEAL

[3] = tested on: PC-3; test: Cell cycle arrest in human PC3 cells assessed as accumulation at S phase at IC50 after 24 hrs by flow cytometry analysis (reference value: 6.97%); type: functional
[4] = tested on: LNCaP; test: Induction of apoptosis in human LNCAP cells assessed as early apoptotic cells at IC50 after 24 hrs using annexin V-FITC/PI staining by flow cytometric analysis (reference value: 1.24%); type: functional
[5] = tested on: LNCaP; test: Cell cycle arrest in human LNCAP cells assessed as accumulation at G2 phase at IC50 after 24 hrs by flow cytometry analysis (reference value: 5.62%); type: functional
[6] = tested on: LNCaP; test: Cell cycle arrest in human LNCAP cells assessed as accumulation at sub-G0 phase at IC50 after 24 hrs by flow cytometry analysis (reference value: 0.18%); type: functional
[7] = tested on: LNCaP; test: Antiproliferative activity against human LNCAP cells after 48 hrs by MTT assay; type: functional, cell-based
[8] = tested on: LNCaP; test: Induction of apoptosis in human LNCAP cells assessed as late apoptotic cells at IC50 after 24 hrs using annexin V-FITC/PI staining by flow cytometric analysis (reference value: 2.96%); type: functional
[9] = tested on: PC-3; test: Cell cycle arrest in human PC3 cells assessed as accumulation at sub-G0 phase at IC50 after 24 hrs by flow cytometry analysis (reference value: 0.12%); type: functional
[10] = tested on: LNCaP; test: Antiproliferative activity against human LNCAP cells after 48 hrs by MTT assay in presence of PPARgamma antagonist GW9662; type: functional, cell-based
[11] = tested on: LNCaP; test: Antiproliferative activity against human LNCAP cells after 48 hrs by MTT assay in presence of CB2 antagonist SR144528; type: functional, cell-based
[12] = tested on: PC-3; test: Antiproliferative activity against human PC3 cells after 48 hrs by MTT assay; type: functional, cell-based; settings: PC-3, 48 h
[13] = tested on: HepG2; test: Antiproliferative activity against human HepG2 cells after 48 hrs by MTT assay; type: functional, cell-based; settings: HepG2, 48 h
[14] = tested on: LNCaP; test: Cell cycle arrest in human LNCAP cells assessed as accumulation at S phase at IC50 after 24 hrs by flow cytometry analysis (reference value: 3.90%); type: functional
[15] = tested on: PC-3; test: Induction of apoptosis in human PC3 cells assessed as early apoptotic cells at IC50 after 24 hrs using annexin V-FITC/PI staining by flow cytometric analysis (reference value: 1.51%); type: functional
[16] = tested on: PC-3; test: Induction of apoptosis in human PC3 cells assessed as late apoptotic cells at IC50 after 24 hrs using annexin V-FITC/PI staining by flow cytometric analysis (reference value: 4.45%); type: functional
[17] = tested on: PC-3; test: Antitumor activity against human PC3 cells xenografted in BALB/c OlaHsd-Foxn1nu mouse assessed as tumor growth inhibition at 2 mg/kg, ip qd for 15 days; type: functional; settings: PC-3, ip, 360 h, route intraperitoneal, read-out: TGI
[18] = tested on: PC-3; test: Cell cycle arrest in human PC3 cells assessed as accumulation at G2 phase at IC50 after 24 hrs by flow cytometry analysis (reference value: 22.90%); type: functional
[19] = tested on: LNCaP; test: Antiproliferative activity against human LNCAP cells after 48 hrs by MTT assay in presence of CB1 antagonist SR141716; type: functional, cell-based
[20] = tested on: LNCaP; test: Cell cycle arrest in human LNCAP cells assessed as accumulation at G1/G0 phase at IC50 after 24 hrs by flow cytometry analysis (reference value: 91.30%); type: functional
[21] = tested on: PC-3; test: Induction of apoptosis in human PC3 cells assessed as viable cells at IC50 after 24 hrs using annexin V-FITC/PI staining by flow cytometric analysis (reference value: 9.96%); type: functional
[22] = tested on: LNCaP; test: Antiproliferative activity against human LNCAP cells after 48 hrs by MTT assay in presence of antioxidant N-acetylcysteine; type: functional, cell-based
[23] = tested on: PC-3; test: Cell cycle arrest in human PC3 cells assessed as accumulation at G1/G0 phase at IC50 after 24 hrs by flow cytometry analysis (reference value: 70%); type: functional
[24] = tested on: LNCaP; test: Antitumor activity against human LNCAP cells xenografted in BALB/c OlaHsd-Foxn1nu mouse assessed as tumor growth inhibition at 2 mg/kg, ip qd for 15 days; type: functional, organism-based; parameters: dose 2 mg/kg
[25] = tested on: LNCaP; test: Induction of apoptosis in human LNCAP cells assessed as viable cells at IC50 after 24 hrs using annexin V-FITC/PI staining by flow cytometric analysis (reference value: 12.33%); type: functional

CCCCCCC(C)(C)C1=CC(=O)C2=C(OC(C)(C)c3cn(CC)nc32)C1=O
Ki [1]: 3.66 µM
Ki [2]: 8.52 µM

CCCCCCC(C)(C)C1=CC(=O)C2=C(OC(C)(C)c3cn(C)nc32)C1=O
Ki [1]: 0.672 µM
Ki [2]: 14.2 µM

CCCCCCC(C)(C)C1=CC(=O)C2=C(OC(C)(C)c3c[nH]nc32)C1=O
Activity [3]: 10.09%
Activity [4]: 5.86%
Activity [5]: 9.24%
Activity [6]: 8.9%
IC50 [7]: 15 µM
Activity [8]: 9.59%
Activity [9]: 2.3%
Activity [10]: inactive
Activity [11]: Active
IC50 [12]: 15 µM
IC50 [13]: 30 µM
Activity [14]: 7.09%
Ki [1]: 0.134 µM
Activity [15]: 3.98%
Activity [16]: 6.91%
inhibition in vivo at 2 mg/kg [17]: 40%
Activity [18]: 30.24%
Activity [19]: inactive
Activity [20]: 74.68%
Activity [21]: 5.97%
Ki [2]: 0.324 µM
Activity [22]: inactive
Activity [23]: 58.68%
TGI [24]: Active
Activity [25]: 12.52%
